Results: patent US20250333397A1 (REMIX THERAPEUTICS INC., priority 2021, published 2025)
Like-named read-outs stand apart in the source and are kept apart here.

How the values were obtained:
Format in all cases: cell-based, human
HTT mRNA = test: RT-qPCR splicing assay, HTT canonical (CJ) and alternative (AJ) junction mRNA; conditions: Homo sapiens; for AC50: read-out: HTT AJ (AC50, increase in AJ mRNA)
Summary of the method: (§1)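 A673 (DMEM/10% FBS) or K562 (IMDM/10% FBS) cells treated 24 h at 37 °C with 11-point 3-fold dilutions, top 10 uM final, DMSO ≤0.25%. Lysates read by one-step RT-qPCR for CJ and AJ isoforms, normalized to GAPDH, GUSB or PPIA. ΔΔCt vs DMSO gives RQ via 2^(-ΔΔCt).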

MYB mRNA = test: RT-qPCR splicing assay, MYB canonical (CJ) and alternative (AJ) junction mRNA; conditions: Homo sapiens; for AC50: read-out: MYB AJ (AC50, increase in AJ mRNA)
Summary of the method: as §1

SMN2 mRNA = test: RT-qPCR splicing assay panel, SMN2 canonical junction (CJ) mRNA; conditions: Homo sapiens
Summary of the method: as §1

Target C mRNA = test: RT-qPCR splicing assay panel, Target C canonical junction (CJ) mRNA; conditions: Homo sapiens
Summary of the method: as §1

[1] = 24 h, Table 3B, A673 or K562 cells, 24 h treatment
[2] = 24 h, Table 3A, A673 or K562 cells, 24 h treatment
[3] = 24 h, Table 3A, A673 or K562 cells, 24 h treatment, read-out: HTT CJ (IC50, decrease in CJ mRNA)
[4] = canonical junction (CJ) mRNA, RT-qPCR panel, Table 4A, read-out: HTT, decrease in CJ mRNA levels, IC50
[5] = 24 h, Table 3A, A673 or K562 cells, 24 h treatment, read-out: MYB CJ (IC50, decrease in CJ mRNA)
[6] = canonical junction (CJ) mRNA, RT-qPCR panel, Table 4A, read-out: MYB, decrease in CJ mRNA levels, IC50
[7] = canonical junction (CJ) mRNA, RT-qPCR panel, Table 4A, read-out: SMN2, decrease in CJ mRNA levels, IC50
[8] = canonical junction (CJ) mRNA, RT-qPCR panel, Table 4A, read-out: Target C, decrease in CJ mRNA levels, IC50

| Compound | AC50 (HTT mRNA; [1]) [nM] | IC50 (HTT mRNA; 24 h, Table 3B, A673 or K562 cells, 24 h treatment, read-out: HTT CJ (IC50, decrease in CJ mRNA)) [nM] | IC50 (HTT mRNA; Table 4B, gene panel, read-out: HTT (IC50, decrease in CJ mRNA levels)) [nM] | AC50 (MYB mRNA; [1]) [nM] | IC50 (MYB mRNA; 24 h, Table 3B, A673 or K562 cells, 24 h treatment, read-out: MYB CJ (IC50, decrease in CJ mRNA)) [nM] | IC50 (MYB mRNA; Table 4B, gene panel, read-out: MYB (IC50, decrease in CJ mRNA levels)) [nM] | IC50 (SMN2 mRNA; Table 4B, gene panel, read-out: SMN2 (IC50, decrease in CJ mRNA levels)) [nM] | IC50 (Target C mRNA; Table 4B, gene panel, read-out: Target C (IC50, decrease in CJ mRNA levels)) [nM] | AC50 (HTT mRNA; [2]) [nM] | IC50 (HTT mRNA; [3]) [nM] | IC50 (HTT mRNA; [4]) [nM] | AC50 (MYB mRNA; [2]) [nM] | IC50 (MYB mRNA; [5]) [nM] | IC50 (MYB mRNA; [6]) [nM] | IC50 (SMN2 mRNA; [7]) [nM] | IC50 (Target C mRNA; [8]) [nM] |
| --- | --- | --- | --- | --- | --- | --- | --- | --- | --- | --- | --- | --- | --- | --- | --- | --- |
| Cc1nc2cc(O)c(-c3ccc(N4CC[C@H](NC(C)(C)C(C)C)C4)nn3)cc2o1 [Compound 875] | < 100 | < 100 | < 100 | 100 to 1000 | 100 to 1000 | 100 to 1000 | < 100 | 100 to 1000 |  |  |  |  |  |  |  |  |
| COc1cc(-c2ccc(-c3cc(C)c(N4CC[C@H](NC5CCC5)C4)nn3)c(O)c2)cnn1 [Compound 449, 2-{6-[(3S)-3-(cyclobutylamino)pyrrolidin-1-yl]-5-methylpyridazin-3-yl}-5-(6-methoxypyridazin-4-yl)phenol] |  |  |  |  |  |  |  |  | 100 to 1000 | 100 to 1000 | 100 to 1000 | 100 to 1000 | 100 to 1000 | 100 to 1000 | < 100 | 1000 to 10000 |
| Cc1cc(-c2ccc(-c3ccc(N4CCC(NC5CCC5)C4)nn3)c(O)c2)cc2cn(C)nc12 (stereo not drawn) [Compound 318] |  |  |  |  |  |  |  |  | 100 to 1000 | 100 to 1000 | 100 to 1000 | > 10000 | 1000 to 10000 | 1000 to 10000 | 100 to 1000 | 100 to 1000 |
| COc1cc(-c2ccc(-c3ccc(N4CC[C@@H](NCC5CC5)C4)nn3)c(O)c2)ncn1 [Compound 382, 2-{6-[(3R)-3-[(cyclopropylmethyl)amino]pyrrolidin-1-yl]pyridazin-3-yl}-5-(6-methoxypyrimidin-4-yl)phenol] |  |  |  |  |  |  |  |  | 100 to 1000 | < 100 | < 100 | 100 to 1000 | 100 to 1000 | 100 to 1000 | < 100 | 100 to 1000 |
| Cc1ncc(-c2cc(O)c(-c3ccc(N4CC[C@@H](N(C)C(C)(C)C)C4)nn3)cc2F)s1 [Compound 339, 2-{6-[(3R)-3-[tert-butyl(methyl)amino]pyrrolidin-1-yl]pyridazin-3-yl}-4-fluoro-5-(2-methyl-1,3-thiazol-5-yl)phenol] |  |  |  |  |  |  |  |  | < 100 | < 100 | < 100 | < 100 | < 100 | < 100 | < 100 | < 100 |
| Cc1ncc(-c2cc(O)c(-c3ccc(N4CC[C@@H](NC5CCC5)C4)nn3)cc2F)s1 [Compound 146, 2-{6-[(3R)-3-(cyclobutylamino)pyrrolidin-1-yl]pyridazin-3-yl}-4-fluoro-5-(2-methyl-1,3-thiazol-5-yl)phenol] |  |  |  |  |  |  |  |  | < 100 | < 100 | < 100 | < 100 | < 100 | < 100 | < 100 | < 100 |
| COc1cc(-c2ccc(-c3ccc(N4CCC(N[C@H]5C[C@@H](OC)C5)C4)nn3)c(O)c2)cnn1 (stereo partly drawn) [Compound 404, 5-(6-methoxypyridazin-4-yl)-2-[6-(3-{[(1s,3s)-3-methoxycyclobutyl]amino}pyrrolidin-1-yl)pyridazin-3-yl]phenol] |  |  |  |  |  |  |  |  | 100 to 1000 | < 100 | < 100 | 1000 to 10000 | 100 to 1000 | 100 to 1000 | < 100 | 100 to 1000 |
| Oc1cc(-c2cc(OC(F)F)ncn2)ccc1-c1ccc(N2CCC(NCC3CC3)C2)nn1 (stereo not drawn) [Compound 370] |  |  |  |  |  |  |  |  | > 10000 | > 10000 | > 10000 | > 10000 | > 10000 | > 10000 | 100 to 1000 | > 10000 |
| COc1cc(-c2cc(O)c(-c3ccc(N4CC[C@H](NC5CCC5)C4)nn3)cc2F)cnn1 [Compound 231, 2-{6-[(3S)-3-(cyclobutylamino)pyrrolidin-1-yl]pyridazin-3-yl}-4-fluoro-5-(6-methoxypyridazin-4-yl)phenol] |  |  |  |  |  |  |  |  | < 100 | < 100 | < 100 | 100 to 1000 | 100 to 1000 | 100 to 1000 | < 100 | 100 to 1000 |
